Experimental data taken from patent publication US20080220103A1, “METHOD FOR TREATING/CONTROLLING/KILLING FUNGI AND BACTERIA ON LIVING ANIMALS” (priority 2005, published 2008).
≈ marks a conversion by molar mass, not a printed value. Where “and” joins values, the source holds several entries; their conditions need not be identical. Identical values can stand only once. Like-named read-outs stand apart in the source and are kept apart here.

How the values were obtained:
E. floccosum [1] = experiment: MIC, modified CLSI M38A broth dilution; format: cell-based, Epidermophyton floccosum
Protocol: (§1) Minimum Inhibitory Concentration (MIC): Minimum inhibitory concentrations of synthetic and semisynthetic and natural products against dermatophytes were determined using a modification of the Clinical Laboratory Standards Institute (CLSI, formerly National Committee of Clinical Laboratory Standards, NCCLS) M38A standard method for dermatophytes, while MIC of these agents against Candida species were determined using the CLSI M27-A2 methodology. The method used to determine the MIC against bacteria was based on the CLSI document M7-A7.
(§2) For dermatophytes, serial dilutions of terbinafine, tolnaftate were prepared in a range of 0.004-2 μg/ml, while for miconazole concentrations ranged between 0.015-8 μg/ml. Finally, for essential oils, the concentrations tested were between 0.03-16 μg/ml. The only exception was tea tree oil where dilutions were prepared in a range of 0.0078-4 μg/ml. The MIC was read at 4 days post inoculation and defined as the lowest concentration of an agent to inhibit 80% of fungal growth as compared to the growth control (Table 2).

C. albicans = experiment: MIC, CLSI M27-A2; format: cell-based, Candida albicans
Protocol: as §1
(§3) The remaining essential oils were prepared in a dilution range of 0.03-16 μg/ml. For Candida the MIC was read at 24 hours and defined as the lowest concentration to inhibit 50% of fungal growth as compared to the growth control (Table 4).

T. mentagrophytes = experiment: Minimum fungicidal concentration (Canton et al.); format: cell-based, Trichophyton mentagrophytes; conditions: for MFC: Trichophyton mentagrophytes
Protocol: (§4) Minimum fungicidal concentration (MFC): The minimum fungicidal concentrations of various agents were determined using the technique described by Canton et al. (Antimicrob Agents Chemother. 2004 8:2477-82). In that method, fungal conidia were collected following growth on potato dextrose agar (PDA) plates and were used to inoculate 96-well plates containing different concentrations of agents. Following incubation at 35° C. for 4 days (for dermatophytes) or 24 hours (for yeast), wells showing no visible growth were cultured to determine the MFC (defined as the lowest concentration of a given agent that kills>99.999% of fungal conidia or spores). The MFC value represents the level of the agent at which spores or conidia were killed.

All yeasts = experiment: MIC, CLSI M27-A2, pooled yeasts; format: cell-based, C. albicans, C. parapsilosis; conditions: n = 12
Protocol: as §1, §3
(§5) In the following Tables, MIC50 and MIC90 are defined as the minimal concentrations of a compound that can inhibit 50% and 90% of the tested organisms, respectively.

[2] = system: All bacteria (Staphylococcus species); experiment: MIC, CLSI M7-A7, pooled bacteria; format: cell-based, S. aureus, S. epidermidis
Protocol: as §1
(§6) For bacterial species, the medium used to evaluate the antibacterial activity of agents and essential oils was Mueller-Hinton (Oxoid Ltd., Basingstoke, Hampshire, England). Serial dilutions of miconazole, terbinafine, and tolnaftate were prepared in a range of 0.125-64 μg/ml and serial dilutions of tea tree oil were prepared in a range of 0.0078-4 μg/ml, while those for the rest of the essential oils were prepared in a range 0.031-16 μg/ml.
as §5

T. rubrum [3] = experiment: MIC, modified CLSI M38A broth dilution; format: cell-based, Trichophyton rubrum
Protocol: as §1, §2

E. floccosum [4] = experiment: Minimum fungicidal concentration (Canton et al.); format: cell-based, Epidermophyton floccosum; conditions: for MFC: Epidermophyton floccosum
Protocol: as §4

T. rubrum [5] = experiment: Minimum fungicidal concentration (Canton et al.); format: cell-based, Trichophyton rubrum; conditions: for MFC: Trichophyton rubrum
Protocol: as §4

C. parapsilosis = experiment: MIC, CLSI M27-A2; format: cell-based, Candida parapsilosis
Protocol: as §1, §3

S. epidermidis = experiment: MIC, CLSI M7-A7, Mueller-Hinton; format: cell-based; conditions: for MIC: read-out: MIC
Protocol: as §1, §6

All dermatophytes = experiment: MIC, modified CLSI M38A, pooled dermatophytes; format: cell-based, E. floccosum, T. rubrum, T. mentagrophytes
Protocol: as §1, §2, §5

[6] = Epidermophyton floccosum, E. floccosum, n = 6
[7] = Candida albicans, C. albicans, n = 6
[8] = Trichophyton rubrum, T. rubrum, n = 6
[9] = Lodderomyces parapsilosis, C. parapsilosis, n = 6
[10] = Staphylococcus epidermidis, S. epidermidis, n = 6

CN(C/C=C/C#CC(C)(C)C)Cc1cccc2ccccc12 [Terbinafine, terbinafine]
MIC Range (E. floccosum [1]; E. floccosum, n = 6): 0.03 to 0.06 mg/L
MIC (E. floccosum [1]; Epidermophyton floccosum, E. floccosum strain 1666): 0.06 mg/L (≈ 0.206 µM)
MIC (E. floccosum [1]; Epidermophyton floccosum, E. floccosum strain 1798): 0.03 mg/L (≈ 0.103 µM)
MIC (E. floccosum [1]; Epidermophyton floccosum, E. floccosum strain 1925): 0.03 mg/L (≈ 0.103 µM)
MIC (E. floccosum [1]; Epidermophyton floccosum, E. floccosum strain 1926): 0.06 mg/L (≈ 0.206 µM)
MIC (E. floccosum [1]; Epidermophyton floccosum, E. floccosum strain 1961): 0.06 mg/L (≈ 0.206 µM)
MIC (E. floccosum [1]; Epidermophyton floccosum, E. floccosum strain 2165): 0.06 mg/L (≈ 0.206 µM)
MIC50 (E. floccosum [1]; [6]): 0.06 mg/L (≈ 0.206 µM)
MIC90 (E. floccosum [1]; [6]): 0.06 mg/L (≈ 0.206 µM)
MIC (C. albicans; C. albicans strain 8280 (multi-resistant)): >64 mg/L
MIC (C. albicans; Candida albicans, 24 h, C. albicans strain 1740, 50% inhibition, 24 hours, read-out: MIC): 1 mg/L (≈ 3.43 µM)
MIC (C. albicans; Candida albicans, C. albicans strain 2108, read-out: MIC): 0.5 mg/L (≈ 1.72 µM)
MIC (C. albicans; Candida albicans, C. albicans strain 2153, read-out: MIC): 0.5 mg/L (≈ 1.72 µM)
MIC (C. albicans; Candida albicans, C. albicans strain 8280 (multi-resistant), read-out: MIC): ≥ 64 mg/L
MIC (C. albicans; Candida albicans, C. albicans strain 8283, read-out: MIC): 0.5 mg/L (≈ 1.72 µM)
MIC (C. albicans; Candida albicans, C. albicans strain 8364, read-out: MIC): 2 mg/L (≈ 6.86 µM)
MIC (C. albicans; Candida albicans, C. albicans, 5 strains, read-out: MIC values): 0.5 to 2 mg/L (≈ 1.72 to 6.86 µM)
MIC50 (C. albicans; [7]): 0.5 mg/L (≈ 1.72 µM)
MIC90 (C. albicans; [7]): 2 mg/L (≈ 6.86 µM)
MFC range (row MIC Range) (T. mentagrophytes; T. mentagrophytes, n = 6): 0.06 to 0.125 mg/L
MFC (T. mentagrophytes; T. mentagrophytes strain 2124, read-out: MFC): 0.125 mg/L (≈ 0.429 µM)
MFC (T. mentagrophytes; T. mentagrophytes strain 2125, read-out: MFC): 0.125 mg/L (≈ 0.429 µM)
MFC (T. mentagrophytes; T. mentagrophytes strain 2127, read-out: MFC): 0.06 mg/L (≈ 0.206 µM)
MFC (T. mentagrophytes; T. mentagrophytes strain 2128, read-out: MFC): 0.125 mg/L (≈ 0.429 µM)
MFC (T. mentagrophytes; T. mentagrophytes, n = 6, read-out: MFC, row MIC50): 0.125 mg/L (≈ 0.429 µM)
MFC (T. mentagrophytes; T. mentagrophytes, n = 6, read-out: MFC, row MIC90): 0.125 mg/L (≈ 0.429 µM)
MIC50 (All yeasts): 0.25 mg/L (≈ 0.858 µM)
MIC90 (All yeasts): 2 mg/L (≈ 6.86 µM)
MIC50 ([2]; Staphylococcus, n = 12): > 64 mg/L
MIC90 ([2]; Staphylococcus, n = 12): > 64 mg/L
MIC Range ([2]; n = 12): >64 mg/L
MIC Range ([2]; n = 12, listed as TERBINAFINE): >64 mg/L
MIC Range ([2]; n = 12, listed as terbinafine): > 64 mg/L
MIC Range (T. rubrum [3]; T. rubrum, n = 6): 0.008 to 0.015 mg/L
MIC (T. rubrum [3]; Trichophyton rubrum, T. rubrum strain 1967): 0.015 mg/L (≈ 0.0515 µM)
MIC (T. rubrum [3]; Trichophyton rubrum, T. rubrum strain 2098): 0.015 mg/L (≈ 0.0515 µM)
MIC (T. rubrum [3]; Trichophyton rubrum, T. rubrum strain 2246): 0.008 mg/L (≈ 0.0275 µM)
MIC (T. rubrum [3]; Trichophyton rubrum, T. rubrum strain 8063): 0.015 mg/L (≈ 0.0515 µM)
MIC (T. rubrum [3]; Trichophyton rubrum, T. rubrum strain 8071): 0.015 mg/L (≈ 0.0515 µM)
MIC (T. rubrum [3]; Trichophyton rubrum, T. rubrum strain 8092): 0.015 mg/L (≈ 0.0515 µM)
MIC50 (T. rubrum [3]; [8]): 0.015 mg/L (≈ 0.0515 µM)
MIC90 (T. rubrum [3]; [8]): 0.015 mg/L (≈ 0.0515 µM)
MFC range (row MIC Range) (E. floccosum [4]; E. floccosum, n = 6): 0.03 to 0.125 mg/L
MFC (E. floccosum [4]; E. floccosum strain 1666, read-out: MFC): 0.06 mg/L (≈ 0.206 µM)
MFC (E. floccosum [4]; E. floccosum strain 1798, read-out: MFC): 0.03 mg/L (≈ 0.103 µM)
MFC (E. floccosum [4]; E. floccosum strain 1925, read-out: MFC): 0.06 mg/L (≈ 0.206 µM)
MFC (E. floccosum [4]; E. floccosum strain 1926, read-out: MFC): 0.06 mg/L (≈ 0.206 µM)
MFC (E. floccosum [4]; E. floccosum strain 1961, read-out: MFC): 0.125 mg/L (≈ 0.429 µM)
MFC (E. floccosum [4]; E. floccosum strain 2165, read-out: MFC): 0.125 mg/L (≈ 0.429 µM)
MFC (E. floccosum [4]; E. floccosum, n = 6, read-out: MFC, row MIC50): 0.06 mg/L (≈ 0.206 µM)
MFC (E. floccosum [4]; E. floccosum, n = 6, read-out: MFC, row MIC90): 0.125 mg/L (≈ 0.429 µM)
MFC range (row MIC Range) (T. rubrum [5]; T. rubrum, n = 6): 0.03 to 0.125 mg/L
MFC (T. rubrum [5]; T. rubrum strain 1967, read-out: MFC): 0.125 mg/L (≈ 0.429 µM)
MFC (T. rubrum [5]; T. rubrum strain 2098, read-out: MFC): 0.06 mg/L (≈ 0.206 µM)
MFC (T. rubrum [5]; T. rubrum strain 2246, read-out: MFC): 0.06 mg/L (≈ 0.206 µM)
MFC (T. rubrum [5]; T. rubrum strain 8063, read-out: MFC): 0.06 mg/L (≈ 0.206 µM)
MFC (T. rubrum [5]; T. rubrum strain 8071, read-out: MFC): 0.06 mg/L (≈ 0.206 µM)
MFC (T. rubrum [5]; T. rubrum strain 8092, read-out: MFC): 0.03 mg/L (≈ 0.103 µM)
MFC (T. rubrum [5]; T. rubrum, n = 6, read-out: MFC, row MIC50): 0.06 mg/L (≈ 0.206 µM)
MFC (T. rubrum [5]; T. rubrum, n = 6, read-out: MFC, row MIC90): 0.125 mg/L (≈ 0.429 µM)
MIC Range (C. parapsilosis; C. parapsilosis, n = 6): 0.25-0.25 μg/mL
MIC Range (C. parapsilosis; C. parapsilosis, n = 6, listed as terbinafine): 0.25 µg/mL (≈ 0.858 µM)
MIC (C. parapsilosis; Lodderomyces parapsilosis, C. parapsilosis strain 7629): 0.25 mg/L (≈ 0.858 µM)
MIC (C. parapsilosis; Lodderomyces parapsilosis, C. parapsilosis strain 7668): 0.25 mg/L (≈ 0.858 µM)
MIC (C. parapsilosis; Lodderomyces parapsilosis, C. parapsilosis strain 7672): 0.25 mg/L (≈ 0.858 µM)
MIC (C. parapsilosis; Lodderomyces parapsilosis, C. parapsilosis strain 7995): 0.25 mg/L (≈ 0.858 µM)
MIC (C. parapsilosis; Lodderomyces parapsilosis, C. parapsilosis strain 8148): 0.25 mg/L (≈ 0.858 µM)
MIC (C. parapsilosis; Lodderomyces parapsilosis, C. parapsilosis strain 8442): 0.25 mg/L (≈ 0.858 µM)
MIC50 (C. parapsilosis; [9]): 0.25 mg/L (≈ 0.858 µM)
MIC90 (C. parapsilosis; [9]): 0.25 mg/L (≈ 0.858 µM)
MIC Range (S. epidermidis; S. epidermidis, n = 6): >64 mg/L
MIC (S. epidermidis; Staphylococcus epidermidis, S. epidermidis strain 8472): > 64 mg/L
MIC (S. epidermidis; Staphylococcus epidermidis, S. epidermidis strain 8473): > 64 mg/L
MIC (S. epidermidis; Staphylococcus epidermidis, S. epidermidis strain 8474): > 64 mg/L
MIC (S. epidermidis; Staphylococcus epidermidis, S. epidermidis strain 8475): > 64 mg/L
MIC (S. epidermidis; Staphylococcus epidermidis, S. epidermidis strain 8476): > 64 mg/L
MIC (S. epidermidis; Staphylococcus epidermidis, S. epidermidis strain 8477): > 64 mg/L
MIC50 (S. epidermidis; [10]): > 64 mg/L
MIC90 (S. epidermidis; [10]): > 64 mg/L
MIC50 (All dermatophytes; n = 18): 0.03 mg/L (≈ 0.103 µM)
MIC90 (All dermatophytes; n = 18): 0.06 mg/L (≈ 0.206 µM)
MIC Range (All dermatophytes; n = 18): 0.015 mg/L and 0.008 to 0.015 mg/L
MIC Range (All dermatophytes; n = 18, listed as terbinafine): 0.008 to 0.06 mg/L
